Measured values published in patent US9238631B2, “Radiolabeled amino acids for diagnostic imaging” (PIRAMAL IMAGING SA, priority 2011, dated 2016).

Tested on: NCI-H460 tumor
Experiment: In vivo biodistribution in NCI-H460 tumor bearing mice
Set-up: Summary: organs / Summary: Carcass / Summary: faeces: unit not given here
Settings: for Summary: urine: in %; for Summary: Recovery: in % (unit assumed)
Method in brief: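 Biodistribution of 18F-labeled compounds was assessed in female NMRI (nu/nu) mice bearing NCI-H460 tumors, established by inoculating 5×10^6 cells 8 to 10 days beforehand. Each mouse received 185 kBq of the fluorinated tracer; at least n=3 animals per time point were sacrificed, organs excised, and radioactivity quantified with a γ-counter.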

What does the source list for N[C@@H](CCC(Cc1ccc(OCC[18F])cc1)C(=O)O)C(=O)O (stereo partly drawn) [[^18F]-12] [(2S)-2-Amino-5-[4-(2-[^18F]fluoroethoxy)benzyl]hexanedioic acid]?
Pancreas uptake (% ID/g) (0.25 h p.i.): 11.45 % ID/g; Pancreas (% ID/g at 1 h p.i.) (1 h p.i.): 3.62 % ID/g; Tumor (% ID/g at 1 h p.i.) (1 h p.i.): 6.47 % ID/g; Urine (% ID at 1 h p.i.) (1 h p.i.): 82.1 ± 7.3 % ID; activity excreted (kidneys/urine) (1 h p.i.): 82.1%; tumor-to-pancreas ratio (1 h p.i.): 1.8; T/Blood (1 h post injection): 33.9; T/Muscle (1 h post injection): 103.4; Tumor uptake (% ID/g) (2 h p.i.): 7.21 % ID/g; Tumor uptake (% ID/g) (4 h p.i.): 5.17 % ID/g; tumor uptake and retention (summary statement) (mouse, in vivo): high tumor uptake and retention; Adrenals (% Dosis/g) (timepoint 0.25 h): 0.69 % Dosis/g; Blood (% Dosis/g) (timepoint 0.25 h): 1.28 % Dosis/g; Bone (% Dosis/g) (timepoint 0.25 h): 0.39 % Dosis/g; Brain (% Dosis/g) (timepoint 0.25 h): 0.09 % Dosis/g; Fat (% Dosis/g) (timepoint 0.25 h): 0.16 % Dosis/g; Gallbladder (% Dosis/g) (timepoint 0.25 h): 2.53 % Dosis/g; Heart (% Dosis/g) (timepoint 0.25 h): 0.58 % Dosis/g; Intestine (% Dosis/g) (timepoint 0.25 h): 1.10 % Dosis/g; Liver (% Dosis/g) (timepoint 0.25 h): 9.02 % Dosis/g; Muscle (% Dosis/g) (timepoint 0.25 h): 0.26 % Dosis/g; Ovaries (% Dosis/g) (timepoint 0.25 h): 1.25 % Dosis/g; Pancreas (% Dosis/g) (timepoint 0.25 h): 11.45 % Dosis/g; Skin (% Dosis/g) (timepoint 0.25 h): 1.58 % Dosis/g; Spleen (% Dosis/g) (timepoint 0.25 h): 2.49 % Dosis/g; Stomach (% Dosis/g) (timepoint 0.25 h): 3.08 % Dosis/g; Summary: Carcass (timepoint 0.25 h): 9.55; Summary: organs (timepoint 0.25 h): 36.92; Tail (% Dosis/g) (timepoint 0.25 h): 3.02 % Dosis/g; Thyroid (% Dosis/g) (timepoint 0.25 h): 0.78 % Dosis/g; Tumor (% Dosis/g) (timepoint 0.25 h): 5.55 % Dosis/g; Tumor/Tissue: Adrenals (timepoint 0.25 h): 8.53; Tumor/Tissue: Blood (timepoint 0.25 h): 4.49; Tumor/Tissue: Bone (timepoint 0.25 h): 14.61; Tumor/Tissue: Brain (timepoint 0.25 h): 62.27; Tumor/Tissue: Fat (timepoint 0.25 h): 37.81; Tumor/Tissue: Gallbladder (timepoint 0.25 h): 2.19; Tumor/Tissue: Heart (timepoint 0.25 h): 9.67; Tumor/Tissue: Intestine (timepoint 0.25 h): 4.93; Tumor/Tissue: Kidney (timepoint 0.25 h): 0.36; Tumor/Tissue: Liver (timepoint 0.25 h): 0.62; Tumor/Tissue: Lung (timepoint 0.25 h): 3.79; Tumor/Tissue: Muscle (timepoint 0.25 h): 20.90; Tumor/Tissue: Ovaries (timepoint 0.25 h): 4.55; Tumor/Tissue: Pancreas (timepoint 0.25 h): 0.49; Tumor/Tissue: Skin (timepoint 0.25 h): 3.71; Tumor/Tissue: Spleen (timepoint 0.25 h): 2.27; Tumor/Tissue: Stomach (timepoint 0.25 h): 1.75; Tumor/Tissue: Thyroid (timepoint 0.25 h): 7.48; Tumor/Tissue: Uterus (timepoint 0.25 h): 2.31; Uterus (% Dosis/g) (timepoint 0.25 h): 2.54 % Dosis/g; Summary: urine (timepoint 0.25 h): 50.49; Summary: Recovery (timepoint 0.25 h): 96.96; Adrenals (% Dosis/g) (timepoint 0.5 h): 0.57 % Dosis/g; Blood (% Dosis/g) (timepoint 0.5 h): 0.74 % Dosis/g; Bone (% Dosis/g) (timepoint 0.5 h): 0.30 % Dosis/g; Brain (% Dosis/g) (timepoint 0.5 h): 0.07 % Dosis/g; Fat (% Dosis/g) (timepoint 0.5 h): 0.12 % Dosis/g; Gallbladder (% Dosis/g) (timepoint 0.5 h): 5.25 % Dosis/g; Heart (% Dosis/g) (timepoint 0.5 h): 0.38 % Dosis/g; Intestine (% Dosis/g) (timepoint 0.5 h): 4.00 % Dosis/g; Liver (% Dosis/g) (timepoint 0.5 h): 5.93 % Dosis/g; Muscle (% Dosis/g) (timepoint 0.5 h): 0.15 % Dosis/g; Ovaries (% Dosis/g) (timepoint 0.5 h): 1.06 % Dosis/g; Pancreas (% Dosis/g) (timepoint 0.5 h): 9.94 % Dosis/g; Skin (% Dosis/g) (timepoint 0.5 h): 1.08 % Dosis/g; Spleen (% Dosis/g) (timepoint 0.5 h): 1.94 % Dosis/g; Stomach (% Dosis/g) (timepoint 0.5 h): 4.18 % Dosis/g; Summary: Carcass (timepoint 0.5 h): 7.31; Summary: faeces (timepoint 0.5 h): 0.10; Summary: organs (timepoint 0.5 h): 33.35; Tail (% Dosis/g) (timepoint 0.5 h): 1.81 % Dosis/g; Thyroid (% Dosis/g) (timepoint 0.5 h): 0.65 % Dosis/g; Tumor (% Dosis/g) (timepoint 0.5 h): 6.91 % Dosis/g; Tumor/Tissue: Adrenals (timepoint 0.5 h): 13.61; Tumor/Tissue: Blood (timepoint 0.5 h): 9.81; Tumor/Tissue: Bone (timepoint 0.5 h): 22.54; Tumor/Tissue: Brain (timepoint 0.5 h): 92.44; Tumor/Tissue: Fat (timepoint 0.5 h): 64.26; Tumor/Tissue: Gallbladder (timepoint 0.5 h): 1.36; Tumor/Tissue: Heart (timepoint 0.5 h): 20.04; Tumor/Tissue: Intestine (timepoint 0.5 h): 4.66; Tumor/Tissue: Kidney (timepoint 0.5 h): 0.79; Tumor/Tissue: Liver (timepoint 0.5 h): 1.27; Tumor/Tissue: Lung (timepoint 0.5 h): 7.67; Tumor/Tissue: Muscle (timepoint 0.5 h): 45.35; Tumor/Tissue: Ovaries (timepoint 0.5 h): 6.59; Tumor/Tissue: Pancreas (timepoint 0.5 h): 0.68; Tumor/Tissue: Skin (timepoint 0.5 h): 6.42; Tumor/Tissue: Spleen (timepoint 0.5 h): 3.60; Tumor/Tissue: Stomach (timepoint 0.5 h): 2.18; Tumor/Tissue: Thyroid (timepoint 0.5 h): 10.73; Tumor/Tissue: Uterus (timepoint 0.5 h): 5.85; Uterus (% Dosis/g) (timepoint 0.5 h): 1.38 % Dosis/g; Summary: urine (timepoint 0.5 h): 57.06; Summary: Recovery (timepoint 0.5 h): 97.82; Adrenals (% Dosis/g) (timepoint 1.0 h): 0.27 % Dosis/g; Blood (% Dosis/g) (timepoint 1.0 h): 0.19 % Dosis/g; Bone (% Dosis/g) (timepoint 1.0 h): 0.16 % Dosis/g; Brain (% Dosis/g) (timepoint 1.0 h): 0.05 % Dosis/g; Fat (% Dosis/g) (timepoint 1.0 h): 0.03 % Dosis/g; Gallbladder (% Dosis/g) (timepoint 1.0 h): 8.20 % Dosis/g; Heart (% Dosis/g) (timepoint 1.0 h): 0.11 % Dosis/g; Intestine (% Dosis/g) (timepoint 1.0 h): 0.91 % Dosis/g; Liver (% Dosis/g) (timepoint 1.0 h): 2.17 % Dosis/g; Muscle (% Dosis/g) (timepoint 1.0 h): 0.07 % Dosis/g; Ovaries (% Dosis/g) (timepoint 1.0 h): 0.79 % Dosis/g; Pancreas (% Dosis/g) (timepoint 1.0 h): 3.62 % Dosis/g; Skin (% Dosis/g) (timepoint 1.0 h): 0.61 % Dosis/g; Spleen (% Dosis/g) (timepoint 1.0 h): 1.54 % Dosis/g; Stomach (% Dosis/g) (timepoint 1.0 h): 0.94 % Dosis/g; Summary: Carcass (timepoint 1.0 h): 3.58
